Results on nine molecules are retold here after paper PMC5777239 (Science signaling, 2017).

The test system of test [1] is RXRA (Gal4-RXRA reporter). Kind of test: Gal4-RXRA UAS-GFP Kit+ reporter cells treated with plasma from treated mice. It counts as in vivo, mouse. The conditions noted are these: Kit+ cells transduced with Gal4-RXRA, plasma from mice exposed to the agent.
The target of test [2] is T1, RXRA (Homo sapiens, UniProt P19793).
T1 sequence (P19793 1-462): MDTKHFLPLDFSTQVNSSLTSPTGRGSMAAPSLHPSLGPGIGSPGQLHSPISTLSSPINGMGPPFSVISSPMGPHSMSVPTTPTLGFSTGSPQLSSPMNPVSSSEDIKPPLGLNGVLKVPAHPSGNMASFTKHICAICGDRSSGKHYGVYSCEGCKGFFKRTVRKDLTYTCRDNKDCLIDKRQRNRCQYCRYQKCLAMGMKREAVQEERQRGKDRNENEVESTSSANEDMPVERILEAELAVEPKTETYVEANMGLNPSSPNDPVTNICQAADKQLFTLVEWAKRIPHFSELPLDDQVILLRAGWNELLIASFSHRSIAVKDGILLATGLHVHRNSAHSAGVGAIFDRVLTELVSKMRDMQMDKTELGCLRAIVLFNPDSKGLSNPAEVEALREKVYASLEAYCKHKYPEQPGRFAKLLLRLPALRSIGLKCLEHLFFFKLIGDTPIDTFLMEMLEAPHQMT
The conditions noted are these: cited from earlier work.

For the next test, the target named is T2, Flag-Gal4 DBD-RXRA LBD (Homo sapiens, UniProt P19793).
T2 sequence (P19793 227-458 limits assumed): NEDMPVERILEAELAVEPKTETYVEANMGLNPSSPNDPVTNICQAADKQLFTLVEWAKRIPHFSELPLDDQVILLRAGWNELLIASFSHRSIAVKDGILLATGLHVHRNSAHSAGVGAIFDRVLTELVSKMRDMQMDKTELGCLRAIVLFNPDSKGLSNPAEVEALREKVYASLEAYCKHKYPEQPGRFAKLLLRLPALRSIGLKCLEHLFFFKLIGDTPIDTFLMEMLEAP
It counts as binding. The conditions noted are these: 293T-FXP cells treated with serum up to 24 hours.

Test [3] deals with T3, RXRA (Gal4-DBD fused to RXRA-LBD) (Homo sapiens, UniProt P19793).
T3 sequence (P19793 227-458 limits assumed): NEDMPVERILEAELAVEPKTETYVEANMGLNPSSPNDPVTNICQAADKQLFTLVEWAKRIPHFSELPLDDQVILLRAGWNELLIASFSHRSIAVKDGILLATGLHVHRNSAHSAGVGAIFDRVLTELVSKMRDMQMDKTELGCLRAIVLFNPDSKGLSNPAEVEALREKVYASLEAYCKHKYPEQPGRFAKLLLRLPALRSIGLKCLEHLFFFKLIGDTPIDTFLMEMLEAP
The class given is cell-based, mouse. The conditions noted are these: primary UAS-GFP Kit+ cells transduced with Gal4-RXRA; synthesized fatty acids.

Test [4] has as its target T4, RXR alpha LBD-GST (Homo sapiens, UniProt P19793).
T4 sequence (P19793 227-458 limits assumed): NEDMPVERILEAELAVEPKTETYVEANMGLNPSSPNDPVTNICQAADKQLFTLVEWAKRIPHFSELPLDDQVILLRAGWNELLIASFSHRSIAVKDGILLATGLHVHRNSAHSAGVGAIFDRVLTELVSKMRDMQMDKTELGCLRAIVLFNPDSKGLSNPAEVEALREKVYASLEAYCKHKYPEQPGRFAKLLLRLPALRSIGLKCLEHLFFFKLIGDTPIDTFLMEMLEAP
Kind of test: LanthaScreen TR-FRET Retinoic X Receptor alpha Coactivator assay. It counts as biochemical. A general note: In TR-FRET formats the signal depends on donor and acceptor labels being close together.

Test [5] has as its target T1, RXRA. Kind of test: DR1x3-TK-Luc luciferase reporter in 293T cells with full-length RXRA. The class given is cell-based. Conditions: 40 hour incubation.
For test [6], the system named is mouse hematopoietic cells. The class given is in vivo. Conditions: after PHZ treatment, mass spectrometry.
The test system of test [7] is RXRA (Gal4-RXRA reporter). The class given is in vivo, mouse. Conditions: for proportion of GFP+mCherry+ cells in total bone marrow cells / single cell abundance of GFP, mean fluorescence intensity (MFI): Gal4-RXRA transplanted mice; for proportion of GFP+mCherry+ cells in total bone marrow cells: compared to mice without treatment; for single cell abundance of GFP, mean fluorescence intensity (MFI): whole bone marrow cells.

Test [8] addresses RXR alpha LBD-GST. Kind of test: FRET or BRET.

On to `O=c1[nH]cc(F)c(=O)[nH]1` [5-FU, 5-fluoruracil], for which the “UAS-GFP reporter output with plasma from treated mice” value (shortened to “UAS-GFP reporter output with plasma”) in test [1] is given as “did not observe an increase”.
Regarding `CCCCC/C=C\C/C=C\C/C=C\C/C=C\CCCC(=O)O` [AA, arachidonic acid], the “activation of RXRA in vitro (luciferase reporter)” value (“activation of RXRA in vitro” for short) on RXRA [2] is listed as “activate RXRA in vitro”.
With `CC/C=C\C/C=C\C/C=C\C/C=C\C/C=C\CCCCCCCC(=O)O` [C24:4, (9Z, 12Z, 15Z, 18Z, 21Z)-tetracosa-9,12,15,18,21-tetraenoic acid], the “binding to Flag-Gal4-RXRA in pull-down (MS)” value (“binding to Flag-Gal4-RXRA” below) at Flag-Gal4 DBD-RXRA LBD is “bound to RXRA in a time-dependent manner”. The “activation of the GFP reporter” value in [3] was “did not activate the GFP reporter”. Moreover, the “binding of PGC1 and D22 co-activator peptides (TR-FRET)” value on RXR alpha LBD-GST [4] is given as “did not lead to binding of either PGC1 or D22”.
Regarding `CC/C=C\C/C=C\C/C=C\C/C=C\C/C=C\CCCCCCCC(=O)O` [C24:5, (9Z, 12Z, 15Z, 18Z, 21Z)-tetracosa-9,12,15,18,21-pentaenoic acid], the “activation of DR1-luciferase reporter” value on RXRA [5] is listed as “could activate a DR1-luciferase reporter”. In addition, on Flag-Gal4 DBD-RXRA LBD, the “binding to Flag-Gal4-RXRA” value is given as “bound to RXRA in a time-dependent manner”. Further, the “binding of PGC1 and D22 co-activator peptides (TR-FRET)” value at RXR alpha LBD-GST [4] is “induced dose-dependent binding of both PGC1 and D22 peptides”.
Take `CC/C=C\C/C=C\C/C=C\C/C=C\C/C=C\C/C=C\CCC(=O)O` [DHA, docosahexaenoic acid]: on Flag-Gal4 DBD-RXRA LBD, the “binding to Flag-Gal4-RXRA” value was “bound to RXRA in a time-dependent manner”. Also, the “activation of RXRA in vitro” value at RXRA [2] is reported as “activate RXRA in vitro”.
`CC/C=C\C/C=C\C/C=C\C/C=C\C/C=C\CCCCCC(=O)O` [DPA, docosapentaenoic acid]: at RXRA [2], the “activation of RXRA in vitro” value was “activate RXRA in vitro”.
Turning to `NNc1ccccc1` [PHZ, phenylhydrazine], in [6], the “concentrations of fatty acids C24:4 and C24:5 in bone marrow cells” value was “increased two-fold”; the “concentrations of fatty acids C24:4 and C24:5 in peripheral blood cells” value is listed as “increased three-fold”. Also, the “UAS-GFP reporter output with plasma” value in test [1] is “increased”. Besides, in test [7], the “proportion of GFP+mCherry+ cells in total bone marrow cells” value was “increase” and the “single cell abundance of GFP, mean fluorescence intensity (MFI)” value is “increased”. Also, in test [7] (granulopoiesis following PHZ treatment), the “WBC peak following treatment” value is given as 18-22,000 /μl.
As to Fluorescein-PGC1α peptide, in the test with RXR alpha LBD-GST [8], the EC50 of the ligand C24:5 for induced binding of the peptide amounted to 94 nM and the EC50 of the ligand DHA for induced binding of the peptide worked out at 86 nM.

B1: granulocyte colony stimulating factor (protein, UniProt P09919 31-207, looked up)
Granulocyte …: TPLGPASSLPQSFLLKCLEQVRKIQGDGAALQEKLVSECATYKLCHPEELVLLGHSLGIPWAPLSSCPSQALQLAGCLSQLHSGLFLYQGLLQALEGISPELGPTLDTLQLDVADFATTIWQQMEELGMAPALQPTQGAMPAFASAFQRRAGGVLVASHLQSFLEVSYRVLRHLAQP
B1: the “UAS-GFP reporter output with plasma” value in [1] is “increased”. In [7], the “proportion of GFP+mCherry+ cells in total bone marrow cells” value was “increase” and the “single cell abundance of GFP, mean fluorescence intensity (MFI)” value is “increased”.
